As a reminder, the IC50 is the concentration that gives 50% inhibition.

Results on 26 compounds are retold here after patent publication US8962608B2, “Cycloalkylnitrile pyrazole carboxamides as janus kinase inhibitors” (Merck Sharp & Dohme Corp., priority 2011, dated 2015).

The test has as its target JAK2 (recombinant purified GST-tagged catalytic domain) (Homo sapiens (Human), UniProt O60674). Briefly: biochemical.

SMILES strings stand for the structures.
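Further: biochemical JAK kinase assay with HTRF detection.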

Sequence of JAK2 (recombinant purified GST-tagged catalytic domain) (O60674 849-1124): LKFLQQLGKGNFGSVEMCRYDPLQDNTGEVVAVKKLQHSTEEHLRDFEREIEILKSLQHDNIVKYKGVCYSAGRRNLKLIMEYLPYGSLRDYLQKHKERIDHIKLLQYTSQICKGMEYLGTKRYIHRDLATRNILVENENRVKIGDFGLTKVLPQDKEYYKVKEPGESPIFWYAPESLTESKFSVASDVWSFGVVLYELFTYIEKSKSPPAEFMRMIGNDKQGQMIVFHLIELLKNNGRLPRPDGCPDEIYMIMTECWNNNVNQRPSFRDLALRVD

Consider `CN(C)[C@H]1CC[C@H](n2cc(C(N)=O)c(Nc3ccc(C(F)(F)F)nc3)n2)[C@@H](C#N)C1` (single isomer, unassigned) [Example 28-22, 1-[(1S,2S,4S or 1R,2R,4R)-2-cyano-4-(dimethylamino)cyclohexyl]-3-{[6-(trifluoromethyl)pyridin-3-yl]amino}-1H-pyrazole-4-carboxamide], for which the IC50 came to 145 nM.

As to `CC(C)(C)OC(=O)NC1CC[C@H](C#N)C(n2cc(C(N)=O)c(Nc3ccc(F)cc3)n2)C1` (mixture of isomers) [Example 11-3, tert-butyl [(1R,3S,4S and 1S,3R,4R) or (1S,3S,4S and 1R,3R,4R)-3-{4-carbamoyl-3-[(4-fluorophenyl)amino]-1H-pyrazol-1-yl}-4-cyanocyclohexyl]carbamate], the IC50 came to 49 nM. Regarding `N#Cc1ccc(Nc2nn([C@H]3CCCC[C@@H]3C#N)cc2C(N)=O)cn1` (single isomer, unassigned) [Example 17-75, 1-[(1R,2R or 1S,2S)-2-cyanocyclohexyl]-3-[(6-cyanopyridin-3-yl)amino]-1H-pyrazole-4-carboxamide], the IC50 worked out at 22 nM.

As for `C[C@H](N[C@H]1CC[C@H](n2cc(C(N)=O)c(Nc3ccc(C(F)(F)F)nc3)n2)[C@@H](C#N)C1)C1CC1` (single isomer, unassigned) [Example 28-8, 1-[(1S,2S,4S or 1R,2R,4R)-2-cyano-4-{[(1S)-1-cyclopropylethyl]amino}cyclo-hexyl]-3-{[6-(trifluoromethyl)pyridin-3-yl]amino}-1H-pyrazole-4-carboxamide], the IC50 stood at 200 nM.

With `CN[C@H]1CC[C@H](n2cc(C(N)=O)c(Nc3ccc(Cl)c(F)c3)n2)[C@@H](C#N)C1` (single isomer, unassigned) [Example 28-43, 3-[(4-chloro-3-fluorophenyl)amino]-1-[(1S,2S,4S or 1R,2R,4R)-2-cyano-4-(methylamino)cyclohexyl]-1H-pyrazole-4-carboxamide], the IC50 amounted to 26 nM. On to `N#C[C@H]1C[C@@H](C(=O)NC2CCC2)CC[C@@H]1n1cc(C(N)=O)c(Nc2ccc(Cl)cc2)n1` (single isomer, unassigned) [Example 35-12, 3-[(4-chlorophenyl)amino]-1-[(1S,2S,4S or 1R,2R,4R)-2-cyano-4-(cyclobutylcarbamoyl)cyclohexyl]-1H-pyrazole-4-carboxamide], for which the IC50 stood at 103 nM. With `CN[C@@H]1CC[C@H](n2cc(C(N)=O)c(Nc3ccc(Cl)c(F)c3)n2)[C@@H](C#N)C1` (single isomer, unassigned) [Example 28-39, 3-[(4-chloro-3-fluorophenyl)amino]-1-[(1S,2S,4R or 1R,2R,4S)-2-cyano-4-(methylamino)cyclohexyl]-1H-pyrazole-4-carboxamide], the half-inhibitory concentration (IC50) is 35 nM. Next, `Cc1cc(Nc2nn([C@H]3CCCC[C@@H]3C#N)cc2C(N)=O)cnc1C#N` (single isomer, unassigned) [Example 17-77, 1-[(1R,2R or 1S,2S)-2-cyanocyclohexyl]-3-[(6-cyano-5-methylpyridin-3-yl)amino]-1H-pyrazole-4-carboxamide]: 18 nM.

In the case of `N#C[C@H]1C[C@@H](NCCC(F)(F)F)CC[C@@H]1n1cc(C(N)=O)c(Nc2ccc(S(=O)(=O)C(F)(F)F)cc2)n1` (single isomer, unassigned) [Example 28-166, 1-{(1S,2S,4S or 1R,2R,4R)-2-cyano-4-[(3,3,3-trifluoro-propyl)amino]cyclohexyl}-3-({4-[(trifluoro-methyl)sulfonyl]phenyl}amino)-1H-pyrazole-4-carboxamide], the IC50 worked out at 55 nM. For `CN(CC1CC1)[C@@H]1CC[C@H](n2cc(C(N)=O)c(Nc3ccc(C(F)(F)F)cc3)n2)[C@@H](C#N)C1` (single isomer, unassigned) [Example 30-2, 1-{(1S,2S,4R or 1R,2R,4S)-2-cyano-4-[(cyclopropyl-methyl)(methyl)amino]cyclo-hexyl}-3-{[4-(trifluoromethyl)phenyl]amino}-1H-pyrazole-4-carboxamide] the value was 135 nM. For the compound `CS(=O)(=O)c1ccc(Nc2nn([C@H]3CC[C@@H](N4CC5(CCC5)C4)C[C@@H]3C#N)cc2C(N)=O)cc1` (single isomer, unassigned) [Example 28-145, 1-[(1S,2S,4R or 1R,2R,4S)-4-(2-azaspiro[3.3]hept-2-yl)-2-cyanocyclohexyl]-3-{[4-(methylsulfonyl)phenyl]amino}-1H-pyrazole-4-carboxamide], the IC50 is 15 nM. Next, `N#C[C@@H]1CCCCC1n1cc(C(N)=O)c(Nc2ccccc2)n1` (mixture of isomers) [Example 1-3, 1-[(1S,2R and 1R,2S)-2-cyanocyclohexyl]-3-(phenylamino)-1H-pyrazole-4-carboxamide]: 138 nM; `N#C[C@H]1C[C@H](NCC(F)F)CC[C@@H]1n1cc(C(N)=O)c(Nc2ccnc(F)c2)n1` (single isomer, unassigned) [Example 28-106, 1-{(1S,2S,4R or 1R,2R,4S)-2-cyano-4-[(2,2-difluoroethyl)amino]cyclohexyl}-3-[(2-fluoropyridin-4-yl)amino]-1H-pyrazole-4-carboxamide]: 53 nM. Regarding `N#C[C@H]1C[C@@H](NCC(F)(F)F)CCC1n1cc(C(N)=O)c(Nc2ccc(S(=O)(=O)C(F)(F)F)cc2)n1` (mixture of isomers) [Example 27-11, 1-{(1S,2S,4S and 1R,2R,4R)-2-cyano-4-[(2,2,2-trifluoroethyl)amino]cyclohexyl}-3-({4-[(trifluoromethyl)sulfonyl]phenyl}amino)-1H-pyrazole-4-carboxamide], the IC50 amounted to 6 nM. Consider `N#Cc1cncc(Nc2nn([C@H]3CCCC[C@@H]3C#N)cc2C(N)=O)c1` (single isomer, unassigned) [Example 17-74, 1-[(1R,2R or 1S,2S)-2-cyanocyclohexyl]-3-[(5-cyanopyridin-3-yl)amino]-1H-pyrazole-4-carboxamide], for which the IC50 was found to be 49 nM. With `CC1(C)CN([C@@H]2CC[C@H](n3cc(C(N)=O)c(Nc4ccc([C@H](O)C(F)(F)F)cc4)n3)[C@@H](C#N)C2)C1` (single isomer, unassigned) [Example 28-44, 1-[(1S,2S,4R or 1R,2R,4S)-2-cyano-4-(3,3-dimethylazetidin-1-yl)cyclohexyl]-3-({4-[(1S or 1R)-2,2,2-trifluoro-1-hydroxyethyl]phenyl}amino)-1H-pyrazole-4-carboxamide], the IC50 turned out to be 11 nM. For `C[C@H](N[C@@H]1CC[C@H](n2cc(C(N)=O)c(Nc3ccc(C(F)(F)F)nc3)n2)[C@@H](C#N)C1)C1CC1` (single isomer, unassigned) [Example 28-19, 1-[(1S,2S,4R or 1R,2R,4S)-2-cyano-4-{[(1S)-1-cyclopropylethyl]amino}cyclo-hexyl]-3-{[6-(trifluoromethyl)pyridin-3-yl]amino}-1H-pyrazole-4-carboxamide], the IC50 is 675 nM. Regarding `N#C[C@H]1C[C@H](O)CC[C@@H]1n1cc(C(N)=O)c(Nc2ccc(C(F)(F)F)c(F)c2)n1` (single isomer, unassigned) [Example 25-23, 1-[(1S,2S,4R or 1R,2R,4S)-2-cyano-4-hydroxycyclohexyl]-3-{[3-fluoro-4-(trifluoromethyl)phenyl]amino}-1H-pyrazole-4-carboxamide], the IC50 was 28 nM. For `N#C[C@H]1C[C@@H](O)CC[C@@H]1n1cc(C(N)=O)c(Nc2ccc(Cl)nc2)n1` (single isomer, unassigned) [Example 33-14, 3-[(6-chloropyridin-3-yl)amino]-1-[(1S,2S,4S or 1R,2R,4R)-2-cyano-4-hydroxycyclohexyl]-1H-pyrazole-4-carboxamide] the value was 14 nM; for `CC(N[C@H]1CC[C@H](n2cc(C(N)=O)c(Nc3ccc(S(=O)(=O)C(F)(F)F)cc3)n2)[C@@H](C#N)C1)C1CC1` (single isomer, unassigned) [Example 28-176, 1-[(1S,2S,4S or 1R,2R,4R)-2-cyano-4-{[(1R)-1-cyclopropylethyl]amino}cyclo-hexyl]-3-({4-[(trifluoromethyl)sulfonyl]phen-yl}amino)-1H-pyrazole-4-carboxamide], 11 nM; for `CN(C(C1CC1)C1CC1)[C@H]1CC[C@H](n2cc(C(N)=O)c(Nc3ccc(S(=O)(=O)C(F)(F)F)cc3)n2)[C@@H](C#N)C1` (single isomer, unassigned) [Example 28-178, 1-{(1S,2S,4S or 1R,2R,4R)-2-cyano-4-[(dicyclopropyl-methyl)(methyl)amino]cyclo-hexyl}-3-({4-[(trifluoromethyl)sulfonyl]phen-yl}amino)-1H-pyrazole-4-carboxamide], 2 nM. For `N#C[C@@H]1CCCC[C@H]1n1cc(C(N)=O)c(Nc2ccc(S(=O)(=O)C(F)F)cc2)n1` (single isomer, unassigned) [Example 43-6, 1-[(1S,2S or 1R,2R)-2-cyanocyclohexyl]-3-({4-[(difluoromethyl)sulfonyl]phenyl}amino)-1H-pyrazole-4-carboxamide] the value was 2 nM. For `CC1(N[C@H]2CCC(n3cc(C(N)=O)c(Nc4ccc(Cl)cc4)n3)[C@@H](C#N)C2)CCOCC1` (single isomer, unassigned) [Example 28-235, 3-[(4-chlorophenyl)amino]-1-{(1S,2S,4S or 1R,2R,4R)-2-cyano-4-[(4-methyltetrahydro-2H-pyran-4-yl)amino]cyclohexyl}-1H-pyrazole-4-carboxamide] the value was 25 nM; for `N#C[C@H]1CCCCC1n1cc(C(N)=O)c(Nc2ccc(S(=O)(=O)C(F)F)cc2)n1` (mixture of isomers) [Example 17-9, 1-[(1S,2S and 1R,2R)-2-cyanocyclohexyl]-3-({4-[(difluoromethyl)sulfonyl]phenyl}amino)-1H-pyrazole-4-carboxamide], 5 nM; for `N#C[C@H]1CCCC[C@@H]1n1cc(C(N)=O)c(Nc2ccc(S(=O)(=O)N3CCOCC3)cc2)n1` (single isomer, unassigned) [Example 17-99, 1-[(1R,2R or 1S,2S)-2-cyanocyclohexyl]-3-{[4-(morpholin-4-ylsulfonyl)phenyl]amino}-1H-pyrazole-4-carboxamide], 1 nM.

Consider `N#C[C@H]1C[C@@H](OC(=O)Nc2ccccc2)CCC1n1cc(C(N)=O)c(Nc2ccc(F)cc2)n1` (mixture of isomers) [Example 34-1, (1S,3S,4S and 1R,3R,4R)-4-{4-Carbamoyl-3-[(4-fluorophenyl)amino]-1H-pyrazol-1-yl}-3-cyanocyclohexyl phenylcarbamate], for which the IC50 worked out at 107 nM.
